Laboratory results published in ChEMBL document CHEMBL2385010, “Discovery of aryl ureas and aryl amides as potent and selective histamine H3 receptor antagonists for the treatment of obesity (part I)” (Bioorg Med Chem Lett, 2013).
pIC50, pKi: −log10 of the molar value. In brackets after ≈: the same amount, converted by molar mass.

How the values were obtained:
[1] = target: Histamine H1 receptor (Homo sapiens) (UniProt P35367); test: Antagonist activity at human histamine H1 receptor assessed as inhibition of calcium mobilization at 10 uM by FLIPR assay relative to control; format: functional
Histamine H3 receptor [2] = target: T1, Histamine H3 receptor (Homo sapiens, UniProt Q9Y5N1); test: Antagonist activity at human histamine H3 receptor expressed in HEK293 cells assessed as inhibition of calcium mobilization by FLIPR assay; format: functional, cell-based
[3] = target: Histamine H2 receptor (Homo sapiens) (UniProt P25021); test: Antagonist activity at human histamine H2 receptor assessed as inhibition of calcium mobilization at 10 uM by FLIPR assay relative to control; format: functional
[4] = target: Melanin-concentrating hormone receptor 1 (Homo sapiens) (UniProt Q99705); test: Antagonist activity at human MCH1R assessed as inhibition of calcium mobilization at 10 uM by FLIPR assay relative to control; format: functional
Histamine H3 receptor [5] = target: T1, Histamine H3 receptor; test: Antagonist activity at human histamine H3 receptor in human T-REx-293 cells assessed as inhibition of basal GTPgammaS binding at 10 uM after 90 mins by scintillation counting analysis relative to control; format: functional, cell-based; conditions: HEK293
Histamine receptor H3 = Histamine receptor H3 (Macaca mulatta, UniProt Q865E1); test: Displacement of [3H]N-alpha-methylhistamine from cloned rhesus monkey histamine H3 receptor transfected in CHO cells after 1 hr by scintillation counting analysis; format: cell-based
Histamine H3 receptor [6] = target: T1, Histamine H3 receptor; test: Displacement of [3H]N-alpha-methylhistamine from cloned human histamine H3 receptor transfected in CHO cells after 1 hr by scintillation counting analysis; format: cell-based
Histamine H3 receptor [7] = target: Histamine H3 receptor (Rattus norvegicus, UniProt Q9QYN8); test: Displacement of [3H]N-alpha-methylhistamine from cloned rat histamine H3 receptor transfected in CHO cells after 1 hr by scintillation counting analysis; format: cell-based
[8] = Solubility of the compound; format: physicochemical
[9] = Drug metabolism in rat liver microsomes; format: ADME, Microsome; conditions: read-out: Drug metabolism
[10] = Drug metabolism in mouse liver microsomes; format: ADME, Microsome; conditions: read-out: Drug metabolism
[11] = Drug metabolism in human liver microsomes; format: ADME, Microsome; conditions: read-out: Drug metabolism
hERG (KCNH2) = hERG (KCNH2) (Homo sapiens, UniProt Q12809); test: Inhibition of human ERG at 10 uM relative to control
Sequence of hERG (KCNH2) (Q12809 whole entry): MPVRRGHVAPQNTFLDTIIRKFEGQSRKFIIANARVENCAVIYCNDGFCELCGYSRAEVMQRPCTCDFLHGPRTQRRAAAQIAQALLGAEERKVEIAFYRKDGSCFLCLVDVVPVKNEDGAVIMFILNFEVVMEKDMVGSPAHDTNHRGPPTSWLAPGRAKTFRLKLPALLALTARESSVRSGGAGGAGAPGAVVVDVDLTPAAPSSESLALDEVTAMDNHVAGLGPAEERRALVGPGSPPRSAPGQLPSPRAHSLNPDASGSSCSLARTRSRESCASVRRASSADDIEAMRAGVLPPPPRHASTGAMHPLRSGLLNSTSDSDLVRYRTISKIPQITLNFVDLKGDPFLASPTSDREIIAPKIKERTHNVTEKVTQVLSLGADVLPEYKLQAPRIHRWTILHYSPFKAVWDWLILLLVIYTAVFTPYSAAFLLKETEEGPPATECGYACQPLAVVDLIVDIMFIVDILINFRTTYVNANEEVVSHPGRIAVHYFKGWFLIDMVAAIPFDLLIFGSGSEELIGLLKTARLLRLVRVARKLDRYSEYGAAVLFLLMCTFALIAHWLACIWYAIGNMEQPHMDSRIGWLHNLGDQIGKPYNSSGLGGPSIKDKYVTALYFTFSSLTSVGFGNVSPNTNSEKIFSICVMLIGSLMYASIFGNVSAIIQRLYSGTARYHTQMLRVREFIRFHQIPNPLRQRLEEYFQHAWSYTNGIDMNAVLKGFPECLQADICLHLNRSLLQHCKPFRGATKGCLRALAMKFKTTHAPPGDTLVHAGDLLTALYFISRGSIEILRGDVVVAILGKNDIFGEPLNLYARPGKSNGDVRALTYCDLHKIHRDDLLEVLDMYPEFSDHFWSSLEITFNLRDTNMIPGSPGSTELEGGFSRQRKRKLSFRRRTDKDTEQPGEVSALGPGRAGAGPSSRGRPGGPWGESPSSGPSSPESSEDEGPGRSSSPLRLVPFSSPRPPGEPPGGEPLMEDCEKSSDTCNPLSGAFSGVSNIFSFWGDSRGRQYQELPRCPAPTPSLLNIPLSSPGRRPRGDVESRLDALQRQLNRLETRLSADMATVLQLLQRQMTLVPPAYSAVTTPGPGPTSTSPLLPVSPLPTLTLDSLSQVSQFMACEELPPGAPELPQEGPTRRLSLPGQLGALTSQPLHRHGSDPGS

Sequence of Histamine H3 receptor (Rattus norvegicus, UniProt Q9QYN8) (Q9QYN8 whole entry): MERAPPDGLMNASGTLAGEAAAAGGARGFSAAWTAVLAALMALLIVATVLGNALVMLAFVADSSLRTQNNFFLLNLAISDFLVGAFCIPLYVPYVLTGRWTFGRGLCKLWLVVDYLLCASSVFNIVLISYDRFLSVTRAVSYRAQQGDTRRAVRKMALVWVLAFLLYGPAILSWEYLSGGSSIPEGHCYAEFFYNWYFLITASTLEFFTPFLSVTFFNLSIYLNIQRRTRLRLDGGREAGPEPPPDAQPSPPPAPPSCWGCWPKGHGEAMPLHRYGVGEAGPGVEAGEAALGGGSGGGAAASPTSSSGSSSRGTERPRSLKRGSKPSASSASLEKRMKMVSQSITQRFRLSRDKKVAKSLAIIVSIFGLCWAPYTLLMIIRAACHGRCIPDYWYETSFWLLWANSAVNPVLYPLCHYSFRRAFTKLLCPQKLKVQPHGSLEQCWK
Sequence of Histamine H2 receptor (Homo sapiens) (P25021 whole entry): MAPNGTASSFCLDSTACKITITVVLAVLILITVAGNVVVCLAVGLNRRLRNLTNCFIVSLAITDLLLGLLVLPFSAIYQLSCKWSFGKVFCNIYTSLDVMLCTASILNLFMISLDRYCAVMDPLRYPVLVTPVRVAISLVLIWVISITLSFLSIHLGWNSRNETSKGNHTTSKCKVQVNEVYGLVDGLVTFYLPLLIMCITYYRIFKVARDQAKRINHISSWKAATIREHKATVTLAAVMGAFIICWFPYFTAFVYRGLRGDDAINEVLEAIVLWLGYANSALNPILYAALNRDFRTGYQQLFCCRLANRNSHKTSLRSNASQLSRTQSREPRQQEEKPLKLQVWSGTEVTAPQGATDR
T1 sequence (Q9Y5N1 whole entry): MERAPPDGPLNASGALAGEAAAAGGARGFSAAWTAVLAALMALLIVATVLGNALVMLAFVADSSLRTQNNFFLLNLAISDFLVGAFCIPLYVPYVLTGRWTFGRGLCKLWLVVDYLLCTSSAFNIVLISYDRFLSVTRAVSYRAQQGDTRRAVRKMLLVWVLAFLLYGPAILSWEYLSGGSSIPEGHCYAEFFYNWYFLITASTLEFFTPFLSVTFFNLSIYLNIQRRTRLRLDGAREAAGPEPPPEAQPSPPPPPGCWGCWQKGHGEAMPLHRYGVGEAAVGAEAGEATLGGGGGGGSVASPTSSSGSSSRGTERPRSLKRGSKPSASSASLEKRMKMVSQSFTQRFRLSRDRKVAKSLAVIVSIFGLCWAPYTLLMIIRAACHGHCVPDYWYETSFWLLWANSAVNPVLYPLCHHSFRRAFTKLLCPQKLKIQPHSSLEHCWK
Sequence of Histamine H1 receptor (Homo sapiens) (P35367 whole entry): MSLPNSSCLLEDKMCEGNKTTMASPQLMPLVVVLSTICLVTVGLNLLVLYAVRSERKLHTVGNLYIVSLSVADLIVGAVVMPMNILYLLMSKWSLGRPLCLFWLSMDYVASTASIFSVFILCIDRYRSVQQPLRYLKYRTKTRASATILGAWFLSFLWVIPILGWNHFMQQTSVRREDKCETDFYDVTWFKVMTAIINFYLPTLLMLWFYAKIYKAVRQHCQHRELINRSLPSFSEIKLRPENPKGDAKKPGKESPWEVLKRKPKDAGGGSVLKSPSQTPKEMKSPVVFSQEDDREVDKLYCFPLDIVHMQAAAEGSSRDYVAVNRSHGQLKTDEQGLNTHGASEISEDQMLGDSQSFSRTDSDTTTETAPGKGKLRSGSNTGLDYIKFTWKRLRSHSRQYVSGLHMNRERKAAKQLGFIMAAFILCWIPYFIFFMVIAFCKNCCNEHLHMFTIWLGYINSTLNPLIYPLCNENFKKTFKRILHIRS
Sequence of Histamine receptor H3 (Q865E1 whole entry): as the sequence (Q9Y5N1 whole entry) above, with D148N, A240G, V282A, A289T, T290A, V300A, H442Q counted along it
Sequence of Melanin-concentrating hormone receptor 1 (Homo sapiens) (Q99705 whole entry): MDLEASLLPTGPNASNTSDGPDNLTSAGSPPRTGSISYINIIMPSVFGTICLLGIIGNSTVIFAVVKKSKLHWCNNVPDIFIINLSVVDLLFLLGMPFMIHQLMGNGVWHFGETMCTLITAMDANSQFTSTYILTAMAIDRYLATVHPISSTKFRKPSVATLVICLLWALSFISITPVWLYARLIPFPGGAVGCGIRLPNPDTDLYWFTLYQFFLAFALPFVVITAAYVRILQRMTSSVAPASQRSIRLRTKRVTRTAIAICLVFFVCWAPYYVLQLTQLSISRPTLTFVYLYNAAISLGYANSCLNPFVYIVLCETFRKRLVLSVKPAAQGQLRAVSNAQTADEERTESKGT

| SMILES | inhibition [1] | pIC50 (Histamine H3 receptor [2]) | inhibition [3] | inhibition [4] | inhibition (Histamine H3 receptor [5]) | other results |
| --- | --- | --- | --- | --- | --- | --- |
| Cc1cc(NC(=O)NC2CCCCC2)ccc1N1CCC(N2CCCC2C)C1 (configuration not stated) | < 40% | 9.70 | < 40% | < 40% | 130% |  |
| O=C(Nc1ccc(OCCCN2CCCCC2)cc1)Nc1cc(Cl)cc(Cl)c1 | < 40% | 9.30 | < 40% | < 40% | 125% | pKi (Histamine receptor H3): 8.47 |
| CC1CCCN1C1CCN(c2ccc(NC(=O)NCc3cc(Cl)cc(Cl)c3)cc2)C1 (configuration not stated) | < 40% | 9.70 | < 40% | < 40% | 144% | pKi (Histamine receptor H3): 8.15 |
| CCN(CC)CCOc1ccc(NC(=S)Nc2ccc(OCC(C)C)cc2)cc1 |  | 9.22 |  |  | 129% | pKi (Histamine H3 receptor [6]): 7.77; pKi (Histamine receptor H3): 7.80; pKi (Histamine H3 receptor [7]): 7.40 |
| O=C(Nc1ccc(Cl)cc1)Nc1ccc(OCCCN2CCCCC2)cc1 |  | 9.15 |  |  | 119% |  |
| CCN(CC)CCOc1ccc(NC(=O)Nc2ccc(F)cc2F)cc1 |  | 6.95 |  |  | 117% |  |
| Cc1cc(NC(=O)NCc2cccs2)ccc1N1CCC(N2CCCC2C)C1 (configuration not stated) | < 40% | 9.70 | < 40% | < 40% | 125% |  |
| CCN(CC)CCCOc1ccc(NC(=O)Nc2ccc(F)cc2F)cc1 |  | 8.10 |  |  | 124% |  |
| Cc1cc(NC(=O)Nc2cc(Cl)cc(Cl)c2)ccc1N1CCC(N2CCCC2C)C1 (configuration not stated) | < 40% | 8.51 | < 40% | < 40% | 103% |  |
| CN(C)CCOc1ccc(NC(=O)Nc2ccc(F)cc2F)cc1 |  | 6.83 |  |  | 102% |  |
| Cc1cc(NC(=O)Nc2ccc(Oc3ccccc3)cc2)ccc1N1CCC(N2CCCC2C)C1 (configuration not stated) | < 40% | 9.22 | < 40% | < 40% | 126% | pKi (Histamine receptor H3): 6.94 |
| Cc1cc(N2CCC(N3CCCC3C)C2)ccc1NC(=O)NC1CCCCC1 (configuration not stated) | < 40% | 9.70 | < 40% | < 40% | 110% |  |
| CC(=O)N1CCN(C(=O)Nc2ccc(N3CCC(N4CCCC4C)C3)c(C)c2)CC1 (configuration not stated) | < 40% | 8.64 | < 40% | < 40% | 115% |  |
| CCOc1ccc(C)cc1NC(=O)Nc1ccc(OCCN(CC)CC)cc1 |  | 8.04 |  |  | 107% |  |
| Cc1cccc(NC(=O)Nc2ccc(OCCCN(C)C)cc2)c1C |  | 7.83 |  |  | 125% |  |
| O=C(Nc1ccc(OCCCN2CCCCC2)cc1)Nc1ccc(F)cc1F |  | 9.30 |  |  | 128% | pKi (Histamine H3 receptor [6]): 7.28; pKi (Histamine receptor H3): 8.47; pKi (Histamine H3 receptor [7]): 7.48 |
| CC1CCCN1C1CCN(c2ccc(NC(=O)NC3CCCCC3)cc2)C1 (configuration not stated) | < 40% | 10.00 | < 40% | < 40% | 122% |  |
| CCN(CC)CCOc1ccc(NC(=O)Nc2ccc(Cl)cc2Cl)cc1 |  | 7.41 |  |  | 118% |  |
| Cc1c(Cl)cc(NC(=O)Nc2ccc(OCCCN3CCCCC3)cc2)cc1Cl |  | 9.70 |  |  | 133% | solubility [8]: 6 µg/mL (≈ 13.7 µM); metabolised [9]: 36%; metabolised [10]: 34%; pKi (Histamine H3 receptor [6]): 6.95; metabolised [11]: 10%; pKi (Histamine receptor H3): 7.74; pKi (Histamine H3 receptor [7]): 6.87 |

| SMILES | inhibition [1] | pIC50 (Histamine H3 receptor [2]) | inhibition [3] | inhibition [4] | inhibition (Histamine H3 receptor [5]) | other results |
| --- | --- | --- | --- | --- | --- | --- |
| CCN(CC)CCOc1ccc(NC(=O)Nc2c(Cl)cccc2Cl)cc1 |  | 9.00 |  |  | 116% |  |
| CC1CCCN1C1CCN(c2ccc(NC(=O)Nc3ccc(Oc4ccccc4)cc3)cc2)C1 (configuration not stated) | < 40% | 8.85 | < 40% | < 40% | 113% | pKi (Histamine receptor H3): 7.33 |
| CC(=O)N(C)C1CCN(C(=O)Nc2ccc(N3CCC(N4CCCC4C)C3)cc2)C1 (configuration not stated) | < 40% | 8.96 | < 40% | < 40% | 109% |  |
| CC(=O)N1CCN(C(=O)Nc2ccc(N3CCC(N4CCCC4C)C3)cc2)CC1 (configuration not stated) | < 40% | 9.30 | < 40% | < 40% | 127% |  |
| CN(C)CCc1ccc(NC(=O)Nc2ccc(CCN(C)C)cc2)cc1 |  | 8.19 |  |  | 94.7% |  |
| Cc1cc(NC(=O)N2CCN(C)CC2)ccc1N1CCC(N2CCCC2C)C1 (configuration not stated) | < 40% | 8.96 | < 40% | < 40% | 118% |  |
| Cc1cc(NC(=O)NCc2cc(Cl)cc(Cl)c2)ccc1N1CCC(N2CCCC2C)C1 (configuration not stated) | < 40% | 8.96 | < 40% | < 40% | 130% |  |
| CC1CCCN1C1CCN(c2ccc(NC(=O)N3CCN(c4ccccc4)CC3)cc2)C1 (configuration not stated) | < 40% | 9.40 | < 40% | < 40% | 122% |  |
| Cc1cc(N2CCC(N3CCCC3C)C2)ccc1NC(=O)N1CCN(C)CC1 (configuration not stated) | < 40% | 9.10 | < 40% | < 40% | 120% |  |
| O=C(Nc1ccc(Cl)cc1)Nc1ccc(OCCN2CCCCC2)cc1 |  | 7.56 |  |  | 105% |  |
| Cc1cccc(NC(=O)Nc2ccc(OCCN(C)C)cc2)c1C |  | 7.14 |  |  | 94% |  |
| Cc1cc(N2CCC(N3CCCC3C)C2)ccc1NC(=O)Nc1cc(Cl)cc(Cl)c1 (configuration not stated) | < 40% | 9.05 | < 40% | < 40% | 126% | solubility [8]: 10.5 µg/mL (≈ 23.5 µM); inhibition at 10 µM (hERG (KCNH2)): 74% |
| CC1CCCN1C1CCN(c2ccc(NC(=O)NCc3cccs3)cc2)C1 (configuration not stated) | < 40% | 10.00 | < 40% | < 40% | 129% | pKi (Histamine receptor H3): 8.72 |
| CC(=O)N(C)C1CCN(C(=O)Nc2ccc(N3CCC(N4CCCC4C)C3)c(C)c2)C1 (configuration not stated) | < 40% | 8.96 | < 40% | < 40% | 118% |  |
| CC1CCCN1C1CCN(c2ccc(NC(=O)Nc3cc(Cl)cc(Cl)c3)cc2)C1 (configuration not stated) | < 40% | 8.92 | < 40% | < 40% | 103% |  |
| CC1CCCN1C1CCN(c2ccc(NC(=O)N3CCN(C)CC3)cc2)C1 (configuration not stated) | < 40% | 9.70 | < 40% | < 40% | 132% |  |
| O=C(Nc1ccc(OCCN2CCCCC2)cc1)Nc1ccc(F)cc1F |  | 7.39 |  |  | 115% |  |
| CN(C)CCOc1ccc(NC(=O)Nc2ccc(Cl)cc2)cc1 |  | 7.79 |  |  | 99% |  |
| CC1CCCN1C1CCN(c2ccc(NC(=O)N3CCCCC3)cc2)C1 (configuration not stated) | < 40% | 9.52 | < 40% | < 40% | 108% |  |
